Results on 8 molecules are retold here after PubChem BioAssay (NCI).

The structures appear in SMILES notation. Where “and” joins values, the source holds several entries; their conditions need not be identical. Equal values may be shown once.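 Tested at 5 concentrations; 48 h exposure; 96-well plates; endpoints linearly interpolated, else capped at highest concentration. The concentration for 50% growth inhibition is given as GI50. The concentration for full growth arrest is given as TGI.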 Some results are limits rather than exact numbers.

Test systems include HCT-15 colon; IGROV1 ovarian; KM12 colon; MDA-MB-231 breast; NCI-H226 lung; RPMI-8226 leukemia; MOLT-4 leukemia; ACHN renal; U251 CNS; EKVX NSCLC.
Common to all, as to test: growth of human tumour cells (NCI), 48 h

For the molecule `Cc1cc(Cl)ccc1C(=O)c1ccc2ccccc2c1C(=O)O`, the TGI in the assay with HCT-15 colon, in the assay on IGROV1 ovarian, with KM12 colon, with MDA-MB-231 breast, with NCI-H226 lung and with RPMI-8226 leukemia was over 100 µM in each case. Moreover, the TGI in the assay on MOLT-4 leukemia, with ACHN renal and with U251 CNS was over 100 µM each time.
Take `Cc1[nH]c2cc(F)ccc2c1-c1nc2c3cccnc3c3ncccc3c2[nH]1`: the GI50 is 0.359 µM in the assay on HCT-15 colon; 0.379 µM with KM12 colon; 0.32 µM in the assay with EKVX NSCLC; 0.409 µM with MDA-MB-231 breast; 0.168 µM with NCI-H226 lung; 0.771 µM in the assay with RPMI-8226 leukemia. The GI50 in the assay on MOLT-4 leukemia was 0.17 µM; with ACHN renal, 0.254 µM; in the assay on U251 CNS, 0.121 µM. Further, the TGI in the assay on HCT-15 colon came out at 18.8 µM; with KM12 colon it was 1.78 µM; in the assay on EKVX NSCLC it was 2.69 µM; in the assay with MDA-MB-231 breast it was 2.4 µM; with NCI-H226 lung it was 0.812 µM; in the assay on RPMI-8226 leukemia it was 2.91 µM. The values for the TGI in the assay on MOLT-4 leukemia, with ACHN renal and in the assay with U251 CNS were 0.642 µM, 1.45 µM and 1.22 µM, respectively.
On to `COC(=O)[C@H](Cc1cn(C)cn1)NC(=O)[C@H](C)NC(=O)Nc1cc(C(F)(F)F)cc(C(F)(F)F)c1`, for which the GI50 in the assay on HCT-15 colon, with IGROV1 ovarian, with KM12 colon, in the assay on MDA-MB-231 breast, in the assay with NCI-H226 lung and with RPMI-8226 leukemia was over 10 µM in each case. Moreover, the GI50 in the assay with MOLT-4 leukemia, in the assay on ACHN renal and in the assay with U251 CNS was over 10 µM in each case. The TGI with HCT-15 colon, in the assay with IGROV1 ovarian, with KM12 colon, in the assay on MDA-MB-231 breast, with NCI-H226 lung and with RPMI-8226 leukemia was over 10 µM in each case. Further, the TGI in the assay on MOLT-4 leukemia, in the assay with ACHN renal and in the assay with U251 CNS was over 10 µM throughout.
Take `Cc1nc2cc(Nc3nc(Nc4ccc(F)cc4)nc(N4CCOCC4)n3)ccc2n1Cc1ccccc1`: the GI50 in the assay on HCT-15 colon is 2.19 µM; in the assay on IGROV1 ovarian, 2.3 µM; in the assay with KM12 colon, 3.77 µM; with MDA-MB-231 breast it was 3.36 µM; in the assay with NCI-H226 lung it was 5.79 µM; in the assay with RPMI-8226 leukemia, 2.19 µM. Also, the GI50 in the assay with MOLT-4 leukemia is 2.7 µM; in the assay with ACHN renal, 3.05 µM; in the assay on U251 CNS, 1.99 µM. Moreover, the TGI in the assay with HCT-15 colon stood at 5.18 µM; in the assay with IGROV1 ovarian, 5.87 µM; with KM12 colon it was 14.2 µM; with MDA-MB-231 breast it was 14.7 µM; with NCI-H226 lung it was 24.2 µM; in the assay on RPMI-8226 leukemia it was 5.86 µM. In addition, the TGI in the assay on MOLT-4 leukemia was 8.04 µM; in the assay on ACHN renal, 13.1 µM; in the assay on U251 CNS it was 4.6 µM.
In the case of `COc1ccc(C(=O)c2sc3nc(-c4cccs4)ccc3c2N)cc1OC`, the GI50 in the assay with HCT-15 colon is 2.81 µM; in the assay with IGROV1 ovarian, 7.72 µM; with KM12 colon it was 4.42 µM; in the assay with MDA-MB-231 breast, 2.96 µM; with NCI-H226 lung, 17.9 µM; in the assay on RPMI-8226 leukemia, 5.45 µM. Also, the GI50 in the assay on MOLT-4 leukemia is 3.78 µM; in the assay on ACHN renal it was 9.26 µM; in the assay on U251 CNS it was 7.78 µM. Further, the TGI with HCT-15 colon was over 100 µM; in the assay with IGROV1 ovarian, over 100 µM; with KM12 colon, over 100 µM; in the assay with MDA-MB-231 breast, 29.6 µM; in the assay on NCI-H226 lung, over 100 µM; in the assay with RPMI-8226 leukemia it was over 100 µM. Besides, the TGI with MOLT-4 leukemia is 18 µM; in the assay on ACHN renal, over 100 µM; with U251 CNS it was over 100 µM.
As for `COc1ccc2c(c1)-c1nn(CCCN(C)C)c3ccc([N+](=O)[O-])c(c13)N2`, the GI50 in the assay on HCT-15 colon is 0.142 µM and 0.541 µM; in the assay on IGROV1 ovarian, 0.215 µM and 0.507 µM; in the assay with KM12 colon, 0.194 µM and 0.43 µM; with EKVX NSCLC, 0.393 µM and 1 µM; with MDA-MB-231 breast, 0.198 µM and 1.17 µM; in the assay on NCI-H226 lung, 0.25 µM and 0.664 µM. Besides, the GI50 in the assay on ACHN renal is 0.102 µM and 0.26 µM; with U251 CNS, 0.178 µM and 0.502 µM. Further, the TGI in the assay with HCT-15 colon is 2.38 µM and 13.5 µM; in the assay on IGROV1 ovarian, 3.48 µM and 6.59 µM; with KM12 colon, 2.54 µM and 2.58 µM; in the assay with EKVX NSCLC it was 4.22 µM and 9.84 µM; with MDA-MB-231 breast it was 2.79 µM and 12 µM; in the assay on NCI-H226 lung, 3.75 µM and 6.86 µM. Further, the TGI was 25.5 µM in the assay on RPMI-8226 leukemia; 1.25 µM and 3.69 µM in the assay with ACHN renal; 4.94 µM and 14.7 µM with U251 CNS.
In the case of `COc1ccc(CCN2CCC(CN(C)Cc3cnn(-c4ccccc4)c3)CC2)cc1`, the GI50 in the assay on HCT-15 colon is 4.49 µM; in the assay on IGROV1 ovarian, 25.6 µM; with KM12 colon it was 15.4 µM; in the assay with MDA-MB-231 breast, 3.58 µM; in the assay with NCI-H226 lung, 32.5 µM; in the assay with RPMI-8226 leukemia, 13.8 µM. Also, the GI50 in the assay on MOLT-4 leukemia was 12.8 µM; in the assay on ACHN renal it was 10.9 µM; with U251 CNS, 13 µM. Also, the TGI was 18.5 µM with HCT-15 colon; over 100 µM in the assay on IGROV1 ovarian; 30.8 µM in the assay on KM12 colon; 20.1 µM in the assay with MDA-MB-231 breast; over 100 µM with NCI-H226 lung; 42.1 µM with RPMI-8226 leukemia. Moreover, the figures for the TGI in the assay on MOLT-4 leukemia, in the assay with ACHN renal and with U251 CNS were 66.7 µM, 33 µM and 27 µM, respectively.
For `CC1(C)Cc2c(Br)c(Br)c(Br)c(OCC(O)CN3CCN(c4ccccn4)CC3)c2O1` (centres undefined), the GI50 in the assay with HCT-15 colon is 10.9 µM; in the assay with IGROV1 ovarian it was 10.7 µM; in the assay with KM12 colon it was 7.78 µM; in the assay on EKVX NSCLC, 11.3 µM; in the assay with MDA-MB-231 breast, 12.3 µM; in the assay with NCI-H226 lung, 15.3 µM. For the same molecule, the GI50 with MOLT-4 leukemia was 3.19 µM; with ACHN renal, 12.5 µM; in the assay with U251 CNS, 11.3 µM. In addition, the TGI in the assay with HCT-15 colon is 26.5 µM; in the assay on IGROV1 ovarian it was 26 µM; with KM12 colon, 24.5 µM; with EKVX NSCLC it was 43.2 µM; with MDA-MB-231 breast it was 28.2 µM; with NCI-H226 lung, 38.2 µM. In addition, the results for the TGI in the assay with MOLT-4 leukemia, with ACHN renal and in the assay on U251 CNS were 19 µM, 91.4 µM and 23.3 µM, respectively.
